Assay results from US20100292200A1, “Methods for Modulating Apoptosis in Platelets” (The Walter and Eliza Hall Institute of Medical Research, priority 2006, published 2010).
Entries after “also recorded” stand apart in the source; their conditions may differ.

Columns and labels:
[1] = system: megakaryocytes; conditions: mouse, in vivo
Procedure: The hematocrit, platelet and white cell count, and differential were determined by using either manual or automated (Advia 120) counting techniques. In most experiments, with the exception of data shown in FIGS. 1A and 6E, the data was collected from male mice. Clonal cultures of 2.5×10^4 adult bone marrow cells or 5×10^4 spleen cells in 1 mL of 0.3% agar in DMEM supplemented with newborn calf serum (20%) were stimulated with a mixture of 100 ng/mL murine stem cell factor, 10 ng/mL murine IL-3, 4 units/mL human EPO and incubated for 7 days at 37° C. in a fully humidified atmosphere of 10% CO2 in air. Agar cultures were fixed, sequentially stained for acetylcholinesterase, Luxol fast blue and hematoxylin; the cellular composition of each colony determined at ×100-400 magnification. Megakaryocyte counts were performed by manual counting from sections of sternum and spleen after staining with hematoxylin/eosin. A minimum of 10 high-power fields (×200) were scored.

[2] = system: reticulated platelets; assay: Reticulated platelet labeling (thiazole orange) after ABT-737; type: in vivo, mouse; conditions: thiazole orange staining after a single dose
Procedure: Animals were bled 2-24 h afterwards and platelet counts determined. […] (B) Platelet recovery after a single dose of ABT-737. Platelet counts (blue symbols; left axis) were determined 2-96 h after a single dose of ABT-737 (red arrow). […] Orange symbols represent serum TPO levels (right axis). (C) Cyclical acute thrombocytopaenia triggered by ABT-737. Platelet counts were determined before and 8 h after a single dose of ABT-737 (red arrows) given at weekly intervals. […] During recovery, baseline counts drifted upwards. (D) ABT-737 acts selectively on aged platelets. […] (E) Synchronizing platelets. […] During recovery, the newly synthesized younger platelets are larger as indicated by the increased mean platelet volume (blue symbols; right axis). (F) Young platelets are resistant to ABT-737. Wild type C57BL/6 mice were treated with APS, and then injected with ABT-737 (red arrows) either 2 or 7 days afterwards. Absolute platelet counts and the % of reticulated platelets were measured. The top panels show representative flow cytometric profiles following thiazole orange staining before or after ABT-737 injections. The bottom panels show platelet counts prior to or 2 h post ABT-737 injection. Data in (B), (C), (E) and (F) represent means±SD of 3-6 mice at each time point.
Staining of reticulated platelets was performed using thiazole orange. […]

For `CN(C)CC[C@H](CSc1ccccc1)Nc1ccc(S(=O)(=O)NC(=O)c2ccc(N3CCN(Cc4ccccc4-c4ccc(Cl)cc4)CC3)cc2)cc1[N+](=O)[O-]` [ABT-737], the “megakaryocytopoiesis in ABT-737 treated mice” value [1] was “normal, or probably even elevated” and the “proportion of reticulated platelets post ABT-737” value [2] was “transient increase; also recorded: increased proportion”.
